For one data set, the system named is juvenile minipigs. The experiment in a line: 13-week repeat-dose toxicity study, rectal administration. The format is in vivo. Conditions: 13 weeks, 5 doses per day, 550 to 13,750 mg/kg. The procedure:
The aim of this study was to test the toxicity of repeated administrations of sodium phenylbutyrate (NaPB) by the intended human route in juvenile minipigs (13-week study, total dose divided into 5 doses per day). Minipig is a model of interest for studies of local tolerance due to similarities between properties of the skin of pigs of the one of humans.
A 13-week repeat-dose toxicity study was conducted in juvenile minipigs using the rectal administration route of sodium phenylbutyrate (NaPB). One group was treated […] at the pharmacological dose of NaPB. One group received oral NaPB (total dose divided into 5 doses per day) for comparison.
The study included safety pharmacology evaluation, toxicokinetic (TK) determination, as well as a four-week recovery period.
Earliest dosing was started at 7 days of age. Oral gavage (5 times daily at 3-4 hour intervals) and rectal administration (5 times daily at 3-4 hour intervals) were performed during 13 weeks. A recovery period of 28 days was performed.
The recovery animals were housed for additional 28 days after dosing. The piglets were weighed twice weekly throughout the study. Growth measurements were performed twice weekly. Ophthalmology, electrocardiography were done the last day of treatment. […] The parameters measured met standard guidelines. […]

The conditions of data set [1]: after per os ingestion; cited from earlier work.
The test system of data set [2] is patients with SMA type II. Conditions: oral, 9 weeks, cited from earlier work.
For a further data set, the system named is patients with SMA. Conditions: oral, 500 mg/kg/day, intermittent regimen, 13 weeks, 107 patients; cited from earlier work.
The subject of a further data set is SMA. Conditions: in vivo; cited from earlier work.

SMILES strings stand for the structures.

Usually half-life stands for the time in which the quantity being followed falls by half.

Turning to `O=C([O-])CCCc1ccccc1.[Na+]` [4-phenylbutyrate, sodium 4-phenylbutyrate], the toxicity result in the data set on juvenile minipigs is “No toxicity was observed”. Moreover, the half-life in data set [1] was 46.2 min. Further, the “scores on a motor scale” value in data set [2] (500 mg/kg/day in five doses, 7 days on and 7 days off, 10 patients) is on record as “significant increase”. Further, the side effects result in data set [2] (500 mg/kg/day) is “no major side effect”. In addition, in the data set with patients with SMA, the efficacy result is given as “not shown to be effective” and the tolerability entry is “well tolerated”.
In the case of `CCCC(CCC)C(=O)O` [Valproic acid, valproic acid], in the data set with SMA, the efficacy result is “do not seem to have given significant results”.
Consider `NC(=O)NO` [hydroxyurea], for which the efficacy entry in the data set with SMA is reported as “do not seem to have given significant results”.

Source of the values: patent US20140187638A1, “PHENYLBUTYRATE IN RECTAL FORM FOR THE TREATMENT OF A MOTOR NEURON DISEASE OR A METABOLIC DISEASE” (GMP-ORPHAN, priority 2011, published 2014).
